# Experimental data reported in publication PMC3352175, “Non-coding nucleotides and amino acids near the active site regulate peptide deformylase expression and inhibitor susceptibility in Chlamydia trachomatis” (Microbiology, 2011).
# Biological target: T1, chlamydial PDF (cPDF), peptide deformylase
# T1 construct: gene def; C-terminal His6 tag (pET21), expressed in ArcticExpress E. coli, purified on TALON resin
# Test: TNBSA end-point deformylation assay (A335), Lineweaver-Burk
# Assay type: biochemical, Chlamydia trachomatis
# Settings: fMAS substrate; 50 mM HEPES pH 7.2, 10 mM NaCl, 37 °C, 10 min; mode not stated; read-out: Wild-type
# From the text: TNBSA end-point deformylation assay (A335), Lineweaver-Burk on chlamydial PDF (cPDF), peptide deformylase
compound,measurement,value
"CNC(=O)[C@H](Cc1c[nH]c2ccccc12)NC(=O)[C@@H](CC(=O)NO)CC(C)C [GM6001, N-[(2R)-2-(hydroxamidocarbonylmethyl)-4-methylpentanoyl]-L-tryptophan methylamide]",Ki,160 ± 35 nM
